From patent publication US20220267309A1, “DIMERIC OR POLYMERIC FORM OF MUTANT IDH INHIBITOR” (EPITAS BIOSCIENCES (SHANGHAI) CO., LTD., priority 2019, published 2022)
Read-outs that look alike come from different tables or passages of the source.

What was measured:
Type in all cases: cell-based
[1] = molecular target: T1, IDH1/R132H (Homo sapiens, UniProt O75874, R132H); assay: Inhibitory activity against mutant IDH1/R132H at the cellular level (extracellular 2-HG, U87MG cells)
T1 construct: expressed in transfected cells; host or cells: U87MG glioma cells
Method: (§1) 2-Hydroxyglutarate dehydrogenase (2HGDH) can reduce NAD+ to NADH in the presence of 2-HG. The later can be quantitatively detected by diaphorase and its substrate Resazurin.
(§2) The cells were digested with trypsin and seeded in a 96-well plate at a density of 1×10^4 with a medium of 200 μL and cultured in a 37° C. incubator overnight. The next day, the test compound was added to a final concentration of 0.1% for DMSO. […] The protein and other components in the culture medium that may interfere with the results were filtered, and the follow-up method was used to detect the content of 2-HG.
(§3) Extracellular 2-HG Detecting System:
(§4) (1) 50 μL reaction system: reaction buffer (50 mM Tris pH7.5, 100 mM NaCl, 20 mM MgCl2, 0.05% BSA), in which the final concentration of NAD+ was 40 μM, the final concentration of 2HGDH was 20 nM, and the test sample was added to 5 μL of culture medium; the reaction solution was mixed and centrifuged, and the reaction was carried out for 1 hour at 25° C. in the dark;
(§5) Preparation of standard curve of 2-HG: the stock solution of 2-HG was diluted to 20 μM with reaction buffer, and a 2-fold gradient diluting was performed for a total of 6 points. Afterwards the above-mentioned 2-HG was measured according to the extracellular 2-HG detecting system, and a standard curve was calculated and drawn.

[2] = molecular target: T2, IDH1/R132C (Homo sapiens, UniProt O75874, R132C); assay: Inhibitory activity against mutant IDH1/R132C at the cellular level (extracellular 2-HG, HT-1080 cells)
T2 construct: the fibrosarcoma cell HT-1080 containing the IDH1/R132C mutation; endogenous in cells; host or cells: HT-1080 fibrosarcoma cells
Method: as §1, §2, §3, §4, §5

[3] = molecular target: T3, IDH2/R140Q (Homo sapiens, UniProt P48735, R140Q); assay: Inhibitory activity against mutant IDH2/R140Q at the cellular level (extracellular 2-HG, U87MG cells); conditions: glioma cell U87MG overexpressing IDH2/R140Q; for IC50: 2-HG in culture medium
T3 construct: expressed in transfected cells; host or cells: U87MG glioma cells
T3 sequence (P48735 40-452 R140Q): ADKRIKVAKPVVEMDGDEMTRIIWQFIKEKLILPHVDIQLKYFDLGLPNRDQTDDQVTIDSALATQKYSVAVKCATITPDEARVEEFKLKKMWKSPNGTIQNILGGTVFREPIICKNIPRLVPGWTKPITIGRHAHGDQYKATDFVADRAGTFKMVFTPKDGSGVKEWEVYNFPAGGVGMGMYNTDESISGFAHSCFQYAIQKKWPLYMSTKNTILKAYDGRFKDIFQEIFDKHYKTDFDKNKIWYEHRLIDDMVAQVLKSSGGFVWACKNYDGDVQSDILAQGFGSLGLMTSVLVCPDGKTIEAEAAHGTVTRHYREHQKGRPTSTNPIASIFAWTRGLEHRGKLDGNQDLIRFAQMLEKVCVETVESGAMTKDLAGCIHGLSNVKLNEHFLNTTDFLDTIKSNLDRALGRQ
Method: as §1, §2, §3, §4
(2) 25 μL color development system: color development buffer (50 mM Tris pH7.5, 100 mM NaCl, 20 mM MgCl2, 0.05% BSA), in which the final concentration of diaphorase was 36 μg/mL, and the final concentration of resazurin sodium was 3 μM; 25 μL of the above-mentioned color developing solution was added to the 50 μL reaction system in (1), mixed and centrifuged, and the fluorescence value was measured immediately under Ex544/Em590.
as §5
Calculation of Extracellular 2-HG Content:
the fluorescence value obtained in the extracellular 2-HG detecting system was calculated using the 2-HG standard curve to calculate the content of 2-HG in the culture medium, and DMSO was used as a negative control to calculate the compound's inhibition against IDH1/R132H mutation producing the 2-HG activity.
The experimental steps were the same as in Example 7, except that the glioma cell U87MG overexpressing the IDH1/R132H mutation was replaced with the glioma cell U87MG overexpressing the IDH2/R140Q mutation.

[4] = glioma cell U87MG overexpressing IDH1/R132H, 2-HG in culture medium, read-out: IC50, inhibitory activity against IDH1/R132H
[5] = glioma cell U87MG overexpressing IDH1/R132H, 24 hours, 2-HG in culture medium, read-out: IC50 (nM), inhibitory activity against IDH1/R132H
[6] = fibrosarcoma cell HT-1080 containing IDH1/R132C, 2-HG in culture medium, read-out: IC50 (nM), inhibitory activity against IDH1/R132C
[7] = fibrosarcoma cell HT-1080 containing IDH1/R132C, 2-HG in culture medium, read-out: IC50, inhibitory activity against IDH1/R132C

T2 sequence (O75874 2-414 R132C limits assumed): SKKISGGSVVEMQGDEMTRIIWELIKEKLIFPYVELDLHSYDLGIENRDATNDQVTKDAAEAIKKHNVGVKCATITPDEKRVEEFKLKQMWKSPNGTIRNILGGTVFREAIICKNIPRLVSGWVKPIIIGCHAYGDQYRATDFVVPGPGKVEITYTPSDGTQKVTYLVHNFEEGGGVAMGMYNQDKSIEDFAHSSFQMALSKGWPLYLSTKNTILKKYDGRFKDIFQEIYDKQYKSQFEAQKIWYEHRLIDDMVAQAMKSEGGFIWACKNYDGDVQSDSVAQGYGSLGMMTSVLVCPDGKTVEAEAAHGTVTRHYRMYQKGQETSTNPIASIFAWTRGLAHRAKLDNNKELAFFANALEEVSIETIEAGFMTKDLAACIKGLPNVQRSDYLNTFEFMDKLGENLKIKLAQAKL
T1 sequence (O75874 whole entry R132H): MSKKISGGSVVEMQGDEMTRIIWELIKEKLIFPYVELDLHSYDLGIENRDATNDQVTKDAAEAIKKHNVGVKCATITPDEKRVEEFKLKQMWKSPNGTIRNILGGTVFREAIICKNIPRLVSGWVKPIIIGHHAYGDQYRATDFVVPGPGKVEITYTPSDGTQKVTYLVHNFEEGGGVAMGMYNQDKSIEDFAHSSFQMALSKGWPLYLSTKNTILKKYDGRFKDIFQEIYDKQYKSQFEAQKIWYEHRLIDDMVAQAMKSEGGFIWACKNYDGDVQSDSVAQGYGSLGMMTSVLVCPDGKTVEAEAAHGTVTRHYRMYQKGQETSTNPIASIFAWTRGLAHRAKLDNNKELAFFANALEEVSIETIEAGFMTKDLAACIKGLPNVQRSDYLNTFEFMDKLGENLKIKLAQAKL

SMILES	IC50 [1, 4]	IC50 [1, 5]	IC50 [2, 6]	IC50 [2, 7]	Inhibition of IDH2/R140Q [3]	IC50 [3]	IC50 [1]	IC50 [2]
N#Cc1ccnc(N2C(=O)CC[C@H]2C(=O)N(c2cncc(F)c2)[C@H](C(=O)NC2CC(F)(F)C2)c2ccccc2Cl)c1 [AG-120, reference compound]						> 20 µM		
CC(C)[C@H]1COC(=O)N1c1ccnc(N[C@@H](C)c2ccccn2)n1 [Ref1, reference compound]						> 20 µM	500 to 10000 nM	500 to 10000 nM
CC(C)[C@H]1COC(=O)N1c1ccnc(N[C@@H](C)c2ccc(OCCOCCOCCOc3ccc([C@H](C)Nc4nccc(N5C(=O)OC[C@@H]5C(C)C)n4)nc3)cn2)n1 [Compound 1, (4S,4′S)-3,3′-(2,2′-(((1S,1′S)-(5,5′-(((ethane-1,2-diylbis(oxy))bis(ethane-2,1-diyl))bis(oxy))bis(pyridine-5,2-diyl))bis(ethane-1,1-diyl))bis(azanediyl))bis(pyrimidine-4,2-diyl))bis(4-isopropyloxazolidin-2-one)]	≤ 5 nM	< 5 nM	< 5 nM	≤ 5 nM	did not inhibit	> 20 µM		

More lines, main results first:

IC50 [1, 4]	IC50 [1, 5]	IC50 [2, 6]	IC50 [2, 7]	Inhibition of IDH2/R140Q [3]	IC50 [3]	SMILES	IC50 [1]	IC50 [2]
≤ 5 nM	< 5 nM	< 5 nM	≤ 5 nM	did not inhibit	> 20 µM	CC(C)[C@H]1COC(=O)N1c1ccnc(N[C@@H](C)c2ccc(OCCOCCOCCOCCOc3ccc([C@H](C)Nc4nccc(N5C(=O)OC[C@@H]5C(C)C)n4)nc3)cn2)n1 [Compound 2, (4S,4′S)-3,3′-(2,2′-(((1S,1′S)-(5,5′-((((oxybis(ethane-2,1-diyl))bis(oxy))bis(ethane-2,1-diyl))bis(oxy))bis(pyridine-5,2-diyl))bis(ethane-1,1-diyl))bis(azanediyl))bis(pyrimidine-4,2-diyl))bis(4-isopropyloxazolidin-2-one)]		
					> 20 µM	CC(C)[C@H]1COC(=O)N1c1ccnc(N[C@@H](C)c2ccccc2)n1 [IDH125, reference compound]		
